In patent KR20140086355A, “콜치신 유도체를 유효성분으로 포함하는 암의 예방 또는 치료용 조성물” (한국화학연구원, priority 2012, dated 2014):
Entries after “also recorded” stand apart in the source; their conditions may differ.

Tests used:
Type in all cases: cell-based
[1] = system: human colorectal cancer cells [인간 대장암 세포]; assay: Apoptosis induction in human colorectal cancer cells (Western blot); details: listed as 콜치신
[2] = system: human colorectal cancer cells HCT116 [인간 대장암 세포, HCT116]; assay: alamarBlue cell proliferation assay, human colorectal cancer cells HCT116; details: 48 h, concentration dependence (Fig. 3: 100nM-1μM; Fig. 9)
PLK-1 [3] = assay: PLK-1 ELISA in HCT116 cells; details: HCT116, 48 h
PLK-1 [4] = assay: Western blot of Plk-1 in HCT116 cells; details: HCT116, 48 h; listed as 콜치신

## COc1cc2c(c(OC)c1OC)-c1ccc(OC)c(=O)cc1[C@@H](NC(C)=O)CC2 [H11-G04, Colchicine]
[1]
  induction of apoptosis: 콜치신이 인간 대장암 세포의 사멸(apoptosis)를 유도함; also recorded: 세포사멸을 유도
[2]
  inhibition of cell proliferation: 세포증식이 농도에 따라 유의적으로 억제되는 효과가 나타났다
PLK-1 [3]
  Plk-1 concentration: 콜치신에 의해 Plk-1 농도가 감소함
PLK-1 [4]
  inhibition of Plk-1 expression: 콜치신이 Plk-1의 발현을 억제함; also recorded: Plk-1의 발현도 역시 억제된다
